Measured values taken from patent publication US6737383B1, “Herbicidal oxadiazolidines” (priority 1999, dated 2004).

How the values were obtained:
bedstraw = assay: Test B pre/postemergence bedstraw; type: in vivo, Galium aparine
Method in brief: (§1)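 Response is a visual 0-to-10 score relative to untreated plants, where 0 means no effect and 10 means complete control, taken twelve to sixteen days after application. Treatments went onto soil at planting and onto foliage of 1- to 4-leaf plants, using a surfactant-containing non-phytotoxic solvent.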

blackgrass = assay: Test B pre/postemergence blackgrass; type: in vivo, Alopecurus myosuroides
Method in brief: as §1

surinam grass = assay: Test B pre/postemergence surinam grass; type: in vivo, Brachiaria decumbens
Method in brief: as §1

cocklebur = assay: Test B pre/postemergence cocklebur; type: in vivo, Xanthium strumarium
Method in brief: as §1

corn = assay: Test B pre/postemergence corn; type: in vivo, Zea mays
Method in brief: as §1

crabgrass = assay: Test B pre/postemergence crabgrass; type: in vivo, Digitaria sanguinalis
Method in brief: as §1

giant foxtail = assay: Test B pre/postemergence giant foxtail; type: in vivo, Setaria faberii
Method in brief: as §1

morningglory = assay: Test B pre/postemergence morningglory; type: in vivo, Ipomoea hederacea
Method in brief: as §1

pigweed = assay: Test B pre/postemergence pigweed; type: in vivo, Amaranthus retroflexus
Method in brief: as §1

rape = assay: Test B pre/postemergence rape; type: in vivo, Brassica napus
Method in brief: as §1

soybean = assay: Test B pre/postemergence soybean; type: in vivo, Glycine max
Method in brief: as §1

sugar beet = assay: Test B pre/postemergence sugar beet; type: in vivo, Beta vulgaris
Method in brief: as §1

velvetleaf = assay: Test B pre/postemergence velvetleaf; type: in vivo, Abutilon theophrasti
Method in brief: as §1

wheat = assay: Test B pre/postemergence wheat; type: in vivo, Triticum aestivum
Method in brief: as §1

wild oat = assay: Test B pre/postemergence wild oat; type: in vivo, Avena fatua
Method in brief: as §1

purple nutsedge = assay: Test B pre/postemergence purple nutsedge; type: in vivo, Cyperus rotundus
Method in brief: as §1

rice = assay: Test B flood test rice; type: in vivo, Oryza sativa; conditions: Pre-emergence
Method in brief: (§2)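 Flood test on plants grown to the 2-leaf stage; treated plants kept in greenhouse twelve to sixteen days, then visually rated against controls on a 0 (no effect) to 10 (complete control) scale.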

smallflower flatsedge = assay: Test B flood test smallflower flatsedge; type: in vivo, Cyperus difformis; conditions: Pre-emergence
Method in brief: as §2

duck salad = assay: Test B flood test duck salad; type: in vivo, Heteranthera limosa; conditions: Pre-emergence
Method in brief: as §2

bamyardgrass = assay: Test B flood test barnyardgrass; type: in vivo, Echinochloa crus-galli; conditions: Pre-emergence
Method in brief: as §2

[1] = Preemergence, Rate 31 g/ha, visual rating, scale 0 to 10 (0 no effect, 10 complete control)
[2] = Preemergence, Rate 62 g/ha, scale of 0 to 10 where 0 is no effect and 10 is complete control
[3] = Preemergence, Rate 250 g/ha, scale of 0 to 10 where 0 is no effect and 10 is complete control
[4] = Rate 31 g/ha, Postemergence, scale 0 to 10
[5] = Rate 62 g/ha, Postemergence, scale of 0 to 10 where 0 is no effect and 10 is complete control
[6] = Rate 125 g/ha, Postemergence, scale 0 to 10
[7] = Rate 125 g/ha, Preemergence, scale of 0 to 10 where 0 is no effect and 10 is complete control
[8] = Rate 1000 g/ha, scale 0 to 10 (0 no effect, 10 complete control)
[9] = Rate 125 g/ha, flood test species, scale 0 to 10 where 0 is no effect and 10 is complete control
[10] = Rate 250 g/ha, flood-test species, scale 0 to 10, 0 is no effect, 10 is complete control
[11] = Rate 500 g/ha, flood test species, scale 0 to 10 (0 no effect, 10 complete control)

CCOC(=O)C(C)N(C(=O)n1oc(=O)n(-c2c(C)cccc2C)c1=O)c1ccc(F)cc1 (stereo not drawn) [Compound 244]
0: Bedstraw plant response rating (bedstraw; [1]) | Bedstraw plant response rating (bedstraw; [2]) | Bedstraw plant response rating (bedstraw; [3]) | Bedstraw plant response rating (bedstraw; [4]) | Bedstraw plant response rating (bedstraw; [5]) | Bedstraw plant response rating (bedstraw; [6]) | Bedstraw plant response rating (bedstraw; [7]) | Plant response rating (0 to 10; 0 is no effect, 10 is complete control), Bedstraw (bedstraw; Rate 250 g/ha, Postemergence) | Blackgrass plant response rating (blackgrass; [1]) | Blackgrass plant response rating (blackgrass; [2]) | Blackgrass plant response rating (blackgrass; [3]) | Blackgrass plant response rating (blackgrass; [4]) | Blackgrass plant response rating (blackgrass; [5]) | Blackgrass plant response rating (blackgrass; [6]) | Blackgrass plant response rating (blackgrass; [7]) | Plant response rating (0 to 10; 0 is no effect, 10 is complete control), Blackgrass (blackgrass; Rate 250 g/ha, Postemergence) | B. signalgrass plant response rating (surinam grass; [1]) | B. signalgrass plant response rating (surinam grass; [2]) | B. signalgrass plant response rating (surinam grass; [3]) | B. signalgrass plant response rating (surinam grass; [4]) | B. signalgrass plant response rating (surinam grass; [5]) | B. signalgrass plant response rating (surinam grass; Rate 125 g/ha, Postemergence, scale 0 (no effect) to 10 (complete control)) | B. signalgrass plant response rating (surinam grass; [7]) | Plant response rating (0 to 10; 0 is no effect, 10 is complete control), B. signalgrass (surinam grass; Rate 250 g/ha, Postemergence) | Cocklebur plant response rating (cocklebur; [1]) | Cocklebur plant response rating (cocklebur; [2]) | Cocklebur plant response rating (cocklebur; [3]) | Cocklebur plant response rating (cocklebur; [4]) | Cocklebur plant response rating (cocklebur; [5]) | Cocklebur plant response rating (cocklebur; [6]) | Cocklebur plant response rating (cocklebur; [7]) | Plant response rating (0 to 10; 0 is no effect, 10 is complete control), Cocklebur (cocklebur; Rate 250 g/ha, Postemergence) | Corn plant response rating (corn; [1]) | Corn plant response rating (corn; [2]) | Corn plant response rating (corn; [3]) | Corn plant response rating (corn; [4]) | Corn plant response rating (corn; [5]) | Corn plant response rating (corn; [6]) | Corn plant response rating (corn; [7]) | Plant response rating (0 to 10; 0 is no effect, 10 is complete control), Corn (corn; Rate 250 g/ha, Postemergence) | Crabgrass plant response rating (crabgrass; [1]) | Crabgrass plant response rating (crabgrass; [2]) | Crabgrass plant response rating (crabgrass; [3]) | Crabgrass plant response rating (crabgrass; [4]) | Crabgrass plant response rating (crabgrass; [5]) | Crabgrass plant response rating (crabgrass; [7]) | Plant response rating (0 to 10; 0 is no effect, 10 is complete control), Crabgrass (crabgrass; Rate 250 g/ha, Postemergence) | Giant foxtail plant response rating (giant foxtail; [1]) | Giant foxtail plant response rating (giant foxtail; [2]) | Giant foxtail plant response rating (giant foxtail; [3]) | Giant foxtail plant response rating (giant foxtail; [4]) | Giant foxtail plant response rating (giant foxtail; [5]) | Giant foxtail plant response rating (giant foxtail; [7]) | Plant response rating (0 to 10; 0 is no effect, 10 is complete control), Giant foxtail (giant foxtail; Rate 250 g/ha, Postemergence) | Morningglory plant response rating (morningglory; [1]) | Morningglory plant response rating (morningglory; [2]) | Morningglory plant response rating (morningglory; [3]) | Morningglory plant response rating (morningglory; [4]) | Morningglory plant response rating (morningglory; [5]) | Morningglory plant response rating (morningglory; [7]) | Plant response rating (0 to 10; 0 is no effect, 10 is complete control), Morningglory (morningglory; Rate 250 g/ha, Postemergence) | Redroot pigweed plant response rating (pigweed; [1]) | Redroot pigweed plant response rating (pigweed; [2]) | Redroot pigweed plant response rating (pigweed; [3]) | Redroot pigweed plant response rating (pigweed; [4]) | Redroot pigweed plant response rating (pigweed; [5]) | Redroot pigweed plant response rating (pigweed; [7]) | Plant response rating (0 to 10; 0 is no effect, 10 is complete control), Redroot pigweed (pigweed; Rate 250 g/ha, Postemergence) | Rape plant response rating (rape; [1]) | Rape plant response rating (rape; [2]) | Rape plant response rating (rape; [3]) | Rape plant response rating (rape; [4]) | Rape plant response rating (rape; [5]) | Rape plant response rating (rape; [7]) | Plant response rating (0 to 10; 0 is no effect, 10 is complete control), Rape (rape; Rate 250 g/ha, Postemergence) | Soybean plant response rating (soybean; [1]) | Soybean plant response rating (soybean; [2]) | Soybean plant response rating (soybean; [3]) | Soybean plant response rating (soybean; [5]) | Soybean plant response rating (soybean; [7]) | Sugarbeets plant response rating (sugar beet; [1]) | Sugarbeets plant response rating (sugar beet; [2]) | Sugarbeets plant response rating (sugar beet; [3]) | Sugarbeets plant response rating (sugar beet; [5]) | Sugarbeets plant response rating (sugar beet; [7]) | Velvetleaf plant response rating (velvetleaf; [1]) | Velvetleaf plant response rating (velvetleaf; [2]) | Velvetleaf plant response rating (velvetleaf; [3]) | Velvetleaf plant response rating (velvetleaf; [5]) | Velvetleaf plant response rating (velvetleaf; [7]) | Wheat plant response rating (wheat; [1]) | Wheat plant response rating (wheat; [2]) | Wheat plant response rating (wheat; [3]) | Wheat plant response rating (wheat; [5]) | Wheat plant response rating (wheat; [7]) | Wild oats plant response rating (wild oat; [1]) | Wild oats plant response rating (wild oat; [2]) | Wild oats plant response rating (wild oat; [3]) | Wild oats plant response rating (wild oat; [5]) | Wild oats plant response rating (wild oat; [7]) | Nutsedge plant response rating (purple nutsedge; [1]) | Nutsedge plant response rating (purple nutsedge; [2]) | Nutsedge plant response rating (purple nutsedge; [3]) | Nutsedge plant response rating (purple nutsedge; [4]) | Nutsedge plant response rating (purple nutsedge; [5]) | Nutsedge plant response rating (purple nutsedge; [7]) | Plant response rating (0 to 10; 0 is no effect, 10 is complete control), Nutsedge (purple nutsedge; Rate 250 g/ha, Postemergence) | Rice plant response rating (rice; [8]) | Rice plant response rating (rice; [9]) | Rice plant response rating (rice; [10]) | Rice plant response rating (rice; [11]) | S. Flatsedge plant response rating (smallflower flatsedge; [8]) | S. Flatsedge plant response rating (smallflower flatsedge; [9]) | S. Flatsedge plant response rating (smallflower flatsedge; [10]) | S. Flatsedge plant response rating (smallflower flatsedge; [11]) | Ducksalad plant response rating (duck salad; [8]) | Ducksalad plant response rating (duck salad; [9]) | Ducksalad plant response rating (duck salad; [10]) | Ducksalad plant response rating (duck salad; [11]) | Barnyardgrass plant response rating (bamyardgrass; [8]) | Barnyardgrass plant response rating (bamyardgrass; [9]) | Barnyardgrass plant response rating (bamyardgrass; [10]) | Barnyardgrass plant response rating (bamyardgrass; [11])
